Test results reported in ChEMBL document CHEMBL4699505, “Lycosquarrines A-R, Lycopodium Alkaloids from Phlegmariurus squarrosus” (J Nat Prod, 2020).

target: T1, Acetylcholinesterase (Bos taurus) (UniProt P23795); test: Inhibition of bovine erythrocytes AChE using acetylthiocholine iodide as substrate at 100 uM incubated for 15 to 20 mins by Ellman's methods relative to control; type: tissue-based; details: Erythrocyte, time min 15-20
T1 sequence (whole entry): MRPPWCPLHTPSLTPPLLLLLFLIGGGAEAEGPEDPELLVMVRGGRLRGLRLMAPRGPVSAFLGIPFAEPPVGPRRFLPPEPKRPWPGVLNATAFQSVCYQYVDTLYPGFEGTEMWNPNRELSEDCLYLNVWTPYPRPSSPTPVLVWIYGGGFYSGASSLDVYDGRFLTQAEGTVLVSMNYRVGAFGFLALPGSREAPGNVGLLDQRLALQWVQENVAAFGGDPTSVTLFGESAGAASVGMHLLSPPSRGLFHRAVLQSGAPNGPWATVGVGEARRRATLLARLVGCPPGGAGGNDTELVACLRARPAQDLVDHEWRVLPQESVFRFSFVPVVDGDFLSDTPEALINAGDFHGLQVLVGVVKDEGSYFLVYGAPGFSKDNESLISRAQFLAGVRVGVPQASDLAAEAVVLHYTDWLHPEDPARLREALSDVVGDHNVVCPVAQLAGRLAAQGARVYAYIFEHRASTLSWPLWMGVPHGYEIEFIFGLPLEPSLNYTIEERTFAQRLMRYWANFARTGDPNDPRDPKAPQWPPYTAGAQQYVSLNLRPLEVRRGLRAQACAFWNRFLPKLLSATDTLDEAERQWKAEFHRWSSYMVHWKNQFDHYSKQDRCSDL

Structure (SMILES) | inhibition [%]
C[C@H]1CC2=[N+]([O-])CCC[C@]23c2cccnc2C[C@@H]3[C@@H]1O | < 50
C[C@H]1C=C2N3CCC[C@@H]4C(=O)C[C@H]([C@@H]1O)[C@]24CCC3 | < 50
C[C@@H]1C[C@H]2C[C@@H]3O[C@]24[C@H](O)CCN2CCC[C@@H]3[C@]24C1 | < 50
C[C@H]1C[C@]23C4=CCCN2CCC[C@@H]3[C@H](O)[C@@H](O)[C@@H]4[C@@H]1O | < 50
C[C@@H]1C[C@@]2(O)C[C@@H]3O[C@H]4CC[N+]5([O-])CCC[C@@H]3[C@@]5(C1)[C@]42O (stereo partly specified) | < 50
C[C@H]1C[C@]23C4=CCCN2CCC[C@H]3[C@@H](O)C[C@@H]4[C@@H]1O | < 50
C/C=C1\[C@@H]2Cc3[nH]c(=O)ccc3[C@@]1(N)C[C@H](CO)C2 | < 50
C[C@@H]1C[C@H]2Cc3[nH]c(=O)ccc3[C@@](N)(C1)/C2=C/CO | < 50
C[C@H]1C[C@@]23NCCC[C@@H]2[C@H](Cc2ncccc23)[C@@H]1O | < 50
CC(=O)NC1=C2CCC[N+]3([O-])CCC[C@]4(O)[C@H](C1)C[C@@H](C)C[C@]243 (stereo partly specified) | < 50
C[C@H]1C[C@@]23NCCC[C@@H]2[C@](O)(Cc2ncccc23)[C@H]1O | < 50
O=c1ccc2c([nH]1)C[C@@H]1C[C@@H](CO)C[C@]23NCCC[C@H]13 | < 50
C[C@@H]1C[C@H]2C[C@H](OC(=O)CCc3ccc(O)cc3)[C@@H]3CCCN4CC[C@H]5O[C@]25[C@]34C1 | < 50
CO[C@@]12C[C@@H]3C[C@@H](C)C[C@@]4(O1)N1CCC[C@@]2(O)[C@]34CCC1 | < 50
C[C@@H]1C[C@@]2(O)C[C@H](OC(=O)CCc3ccc(O)cc3)[C@@H]3CCCN4CC[C@H]5O[C@@]52[C@]34C1 | < 50
C[C@H]1C[C@@]23[C@H]4CCCN2CC[C@H]2O[C@]23[C@H](C[C@@H]4OC(=O)CCc2ccc(O)cc2)[C@@H]1O | < 50
O=C1C[C@@H]2C=C(CO)C[C@@]34[C@@H]1CCCN3CCC[C@H]24 | < 50
C[C@@H]1C[C@H]2Cc3[nH]c(=O)ccc3[C@]3(C1)NCC[C@@H](O)[C@H]23 | < 50

target: T2, Acetylcholinesterase (Bos taurus, UniProt P23795); test: Inhibition of bovine erythrocytes AChE using acetylthiocholine iodide as substrate incubated for 15 to 20 mins by Ellman's methods; set-up: species or system Erythrocyte; details: not given
T2 sequence (P23795 whole entry): T1 sequence (whole entry)

Structure (SMILES) | IC50 [nM]
C/C=C1\[C@H]2C=C(C(=O)OC)C[C@]1(N)c1ccc(=O)[nH]c1C2 | 4200
C/C=C1\[C@H]2C=C(C)C[C@]1(N)c1ccc(=O)[nH]c1C2 [HUPERZINE A] | 100
C/C=C1\[C@H]2C=C(CO)C[C@]1(N)c1ccc(=O)[nH]c1C2 | 2100
